Entries after “also recorded” stand apart in the source; their conditions may differ. Read-outs that look alike come from different tables or passages of the source. l = locked nucleic acid (LNA); d = 2'-deoxy (DNA)
Legend:
SW620 cells = experiment: SW620 3D tumorsphere cell death / viability (CellTiter-Glo); format: cell-based, human; details: for NRTI-induced cell death: NRTI 5 μM, CellTiter-Glo
Protocol: For experiments using shRNAs specifically targeting RIPK3, SW620 cells were transduced with a plko based lentiviral vector encoding either a non-targeting scrambled shRNA (shNT) (see FIG. 11A), or 3 different shRNAs targeting RIPK3 (shRNA for RIPK3 sequences: […] ID NO: 7); […] ID NO:8); […] ID NO: 9) (see FIGS. 11B-11D). Cells were grown as 3D tumorspheres in an ultra-low attachment 96 well plate and treated either with NRTIs or with DMSO. Cellular viability was analyzed using the CellTiter-Glo© Assay (PROMEGA) 5 days post-treatment. […] For experiments using the RIPK1 inhibitor necrostatin-1, SW620 cells were either transfected either with scrambled non-targeting […] ID NO: 5)) or an LNA targeting [NT]3' (SEQ ID NO: 10; *=phosphorothioate bond; +=locked nucleic acid base)) using Lipofectamine© and treated with DMSO (control) or 10 μM necrostatin-1 (FIG. 12A), or treated either with DMSO or 5 μM ddC in the presence or absence of 10 μM necrostatin-1 (FIG. 12B). Cells were seeded and grown as 3D tumorspheres in an ultra low attachment 96 well plate 1 day after transfection.

DLD1 = DLD1 3D tumorsphere cell death / growth; format: cell-based, human; details: DLD1 (MSS) grown as 3D tumorspheres, LNA treatment
From the text: P-value by Welch's t-test. ** p=0.0063. **** p<0.0001 This finding is consistent with our other data pointing towards HERV-K as the endogenous reverse transcriptase (see Example 3).

[1] = system: metastatic CRC with TP53 mutations
HCT116 cells = experiment: Cell swelling (necroptosis) in 2D HCT116 cells transfected with ectopic HSATII RNA; format: cell-based, human; details: HCT116 2D, transfected with in vitro synthesized HSATII RNA; NRTIs alone or in combination
Protocol: Briefly, HCT116 cells were grown on standard 2D adherent cell culture plates. Cells were transfected with ectopic in vitro synthesized HSATII, and treated with either DMSO (vehicle control), or with the NRTIs ddC and d4T either alone or in combination. Cell morphology was analyzed using microscopy. Cell swelling was confirmed as an indication of necroptosis.

HSATII RNA = experiment: Northern blot of HSATII RNA from HCT 116 xenografts of treated mice; format: in vivo; details: 25 mg/kg, vs vehicle (DMSO)
From the text: Previous studies have shown that HSATII RNA has a high degree of sequence similarity with viral RNA, and the presence of this RNA can trigger an innate immune response in cells similar to that which is seen in response to infection by viruses (Tanne et al. (2015) Proc. Natl. Acad. Sci. U.S.A. 112(49): 15154-9). HSATII RNA is also reverse transcribed and reintegrated into the genome, which leads to genomic expansion (Bersani et al. (2015) Proc. Natl. Acad. Sci. U.S.A. 112(49): 15148-53). This behavior is not commonly associated with mammalian RNA, but is a defining feature of retroviruses such as the human immunodeficiency virus (HIV). It is widely accepted that in retroviruses one of the functions of reverse transcription is to escape detection by the innate immune system in infected cells, as DNA is less immunogenic than RNA. For example, the reverse transcribed DNA of HIV is integrated into the host genome, making it undetectable by the immune system. Thus, it is possible that HSATII reverse transcription plays a similar functional role in cancer cells. To test this hypothesis, cancer cell lines were treated with antiretroviral nucleoside reverse transcriptase inhibitors (NRTIs) to target HSATII. The NRTI dideoxycytidine (ddC) was administered to mice having HCT 116 xenografts at a dose of 25 mg/kg. […] RNA was purified and analyzed by Northern blot. […]

[2] = system: colorectal cancer cell lines grown as 3D tumorspheres; experiment: Colorectal cancer cell line panel grown as 3D tumorspheres, viability with NRTIs, AZA, LNAs; format: cell-based, human; details: SW620, DLD1, HCT8, HCT116 cells; RIPK1 inhibition
Protocol: FIGS. 21A-21B show TP53-mutant or wildtype CRC cell lines are treated with a panel of clinically approved NRTIs (5 μM) alone (FIG. 21A) or with 300 nM AZA (FIG. 21). Cell viability is measured using Cell-titer Glow assay at treatment day 7, and represented as Relative Tumoursphere (%) normalized to DMSO.
As described above, some cancer cell lines appear to be refractory to treatment with an NRTI (e.g., the Microsatellite Stable (MSS) colorectal cancer cell lines SW620 and DLD-1, see Example 1). To determine whether activation of satellite transcription using the DNA hypomethylating agent 5′-azacytidine (Aza) could render MSS colorectal cancer cell lines sensitive to NRTI treatment, the following experiment was performed. Briefly, human colorectal cancer cell lines were grown as 3D tumorspheres in ultra-low attachment 96 well plates and treated either with DMSO or with 5 μM of NRTI in the presence of 300 nM Aza. A control sample (DMSO) without Aza or NRTI was also included. Cell viability was analyzed using the CellTiter-Glo® Assay (PROMEGA) 5 days after treatment initiation.
To determine the generalizability of NRTI anti-neoplastic effects, a panel of 9 NRTIs encompassing analogues for each of the nucleosides on a set of 12 colorectal cancer (CRC) cell lines was tested. […]

5′-+A*+T*+G*+G*A*A*T*C*A*T*C*A*T*+C*+G*+A*+A-3′ (ATGGAATCATCATCGAA; sugars from the 5' end l4 d9 l4, all phosphorothioate, methylation of C not given here) [HSATII LNA2]
cell death (SW620 cells; SW620 (MSS) grown as 3D tumorspheres, LNA treatment): induces cell death | cell death (DLD1): induces cell death

Nc1ccn([C@@H]2CS[C@H](CO)O2)c(=O)n1 [3TC, lamivudine]
dose limiting toxicity ([1]; metastatic cancer patients): lack of significant dose limiting toxicity | disease stability ([1]; patient 8): 168 days | disease stability ([1]; patient 11): 110 days | median progression free survival ([1]; patients with stable disease on single agent 3TC): 159 days | patients with stable disease ([1]; single agent 3TC, 24 patients): 21%

Nc1nc(NC2CC2)c2ncn([C@H]3C=C[C@@H](CO)C3)c2n1 [ABC, abacavir]
NRTI-induced cell death (SW620 cells; SW620 3D tumorspheres): cell death induced

C=C1[C@H](CO)[C@@H](O)C[C@@H]1n1cnc2c(=O)[nH]c(N)nc21 [ETV, entecavir]
NRTI-induced cell death (SW620 cells; SW620 3D tumorspheres): cell death induced

Cc1cn([C@H]2C=C[C@@H](CO)O2)c(=O)[nH]c1=O [d4T, stavudine]
cell swelling (indicator of necroptosis) (HCT116 cells): cellular swelling was enhanced

Nc1ccn([C@H]2CC[C@@H](CO)O2)c(=O)n1 [ddC, 2′,3′-dideoxycytidine]
NRTI-induced cell death (SW620 cells; SW620 3D tumorspheres): tumor cell death induced | cell swelling (indicator of necroptosis) (HCT116 cells): cellular swelling was enhanced | HSATII RNA signal (Northern blot) (HSATII RNA): accumulation of HSATII RNA; also recorded: increase of total HSATII signal

CN1C(=O)C(Cc2c[nH]c3ccccc23)NC1=S (stereo not shown) [necrostatin-1]
rescue of cell death induced by HSATII-specific LNA (SW620 cells; SW620 3D tumorspheres, 10 μM necrostatin-1): prevented tumor cell death | rescue of cell death induced by ddC (SW620 cells; SW620 3D tumorspheres, 10 μM necrostatin-1, 5 μM ddC): prevented tumor cell death | rescue from NRTI and AZA mediated toxicity [2]: sufficient to rescue cell lines from NRTI and AZA mediated toxicity
